{
  "source": "patent US10335382B2",
  "about": "“Use of hydrogen sulfide synthesis inhibitors for cancer therapy” (THE BOARD OF REGENTS OF THE UNIVERSITY OF TEXAS SYSTEM, priority 2013, dated 2019)",
  "target": "T1, CBS (Homo sapiens, UniProt P35520)",
  "T1 sequence (P35520 1-551)": "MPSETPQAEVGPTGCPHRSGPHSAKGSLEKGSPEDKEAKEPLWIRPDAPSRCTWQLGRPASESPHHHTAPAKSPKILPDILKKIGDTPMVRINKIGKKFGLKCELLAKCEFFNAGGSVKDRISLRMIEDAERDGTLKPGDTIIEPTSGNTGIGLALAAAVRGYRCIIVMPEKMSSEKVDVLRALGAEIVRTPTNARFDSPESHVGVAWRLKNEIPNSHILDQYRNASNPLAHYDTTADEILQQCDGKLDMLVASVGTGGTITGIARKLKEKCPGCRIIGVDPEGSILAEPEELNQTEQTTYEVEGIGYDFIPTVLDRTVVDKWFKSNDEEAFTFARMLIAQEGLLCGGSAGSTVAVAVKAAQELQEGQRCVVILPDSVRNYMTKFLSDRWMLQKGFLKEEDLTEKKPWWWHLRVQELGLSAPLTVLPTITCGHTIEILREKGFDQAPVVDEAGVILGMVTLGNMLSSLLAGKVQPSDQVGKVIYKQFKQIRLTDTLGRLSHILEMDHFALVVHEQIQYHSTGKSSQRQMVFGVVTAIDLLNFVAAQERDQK",
  "assay": "CBS inhibitor screen: H2S production by recombinant CBS (methylene blue assay)",
  "assay_type": "biochemical",
  "set-up": "These studies used full-length human CBS enzyme; made in house; host or cells: E. coli BL21 (DE3) Codon Plus",
  "details": "100 μM; homocysteine-induced H2S production; LOPAC library screen; read-out: Inhibition of CBS activity at 100 μM",
  "from_the_text": "Studies have been performed characterizing, in detail, the specificity and selectivity of all known H2S biosynthesis inhibitors, using recombinant CBS and CSE enzymes. These studies used full-length human CBS enzyme, and a colorimetric ‘capture’ reaction of the H2S produced by these enzymes, an assay generally known as the ‘methylene blue assay’. This assay is used in a 96-well plate format, as well as in combination with a second screening method based on a fluorescent dye.\nHuman recombinant CBS is expressed as described (Asimakopoulou et al, (2013) Br J Pharmacol. 169(4):922-32). A library of pharmacologically active compounds (e.g., LOPAC library, Sigma; 1240 compounds) is tested on homocysteine-induced H2S production. In certain aspects the assay is in a 96-well format. In certain aspects H2S production is measured by the methylene blue assay (Asimakopoulou et al., (2013) Br J Pharmacol. 169(4):922-32).\nPlasmids, bacterial strains and media. E. coli BL21 (DE3) Codon Plus is used as a host strain to express recombinant human CSE or CBS. CSE cDNA was cloned into pGEX-4T3 and CBS into pGEX-Kg to create N-terminal GSH-S-transferase (GST) fusion proteins. The expression vectors were transformed and plated on LB-agar plates, supplemented with ampicillin (100 μg/mL).\nThe expression and purification of CSE and CBS is performed as described previously with modifications (Frank et al., (2008) Arch Biochem Biophys 470:64-72; Huang et al., (2009) J Mol Biol 396: 708-18). Briefly, BL21(DE3) Codon Plus cells containing either the expression vector pGEX-4T3/GST-CSE or pGEX-Kg/GST-CBS are grown at 37° C. and 180 r.p.m. in LB broth medium containing 100 μg/mL ampicillin to an absorption of 0.6-0.8 at 600 nm. In addition, 0.3 mM d-ALA is added to the culture containing pGEX-Kg/GST-CBS. Then protein expression is induced by addition of 0.1 mM IPTG. Cells containing pGEX-4T-3/GST-CSE are incubated overnight at 18° C., whereas cells containing pGEXKg/GST-CBS are incubated overnight at 30° C. Culture is then centrifuged at 4° C. and 5000×g for 10 min and the cell pellet was resuspended in PBS (140 mM NaCl, 2.7 mM KCl, 10 mM Na2HPO4, 1.8 mM KH2PO4, pH 7.8) and stored at −20° C. overnight. After thawing, the suspension is sonicated in lysis buffer containing PBS and protease inhibitor cocktail for GST-CSE and PBS, 5 mM DTT, 1% Triton X-100, […] and protease inhibitor cocktail for GST-CBS. After centrifugation at 4° C. for 30 min, the soluble fraction containing either the GST-CSE or the GST-CBS recombinant protein is loaded onto a GSTrap FF 1 mL affinity column that has been equilibrated with binding buffer PBS. The column was consecutively washed with five column volumes of binding buffer. Proteins attached to the column, including GST-CSE or GST-CBS recombinant proteins, are eluted with five column volumes of elution buffer (50 mM Tris-HCl, 10 mM reduced GSH, pH 8.0) and then dialysed and concentrated in 10 mM sodium phosphate buffer pH 8.2 and DTT 1 mM. The purity of the recombinant enzymes was checked by SDS-PAGE on 12% polyacrylamide gels after staining of protein bands with Coomassie Blue R-250. Protein concentration was determined using the DC protein assay kit.\nH2S determination is performed according to Stipanuk and Beck ((1982) Biochem J 206:267-77) with some modifications. In the case of the CSE enzyme, an assay consist of a 100 μL reaction mixture containing 5 μg of the purified CSE enzyme, 0.01 mM PLP, 1 mM L-cys, and 50 mM sodium phosphate buffer pH 8.2. For the CBS enzyme, the reaction mixture contains the same as for the CSE plus 1 mM homocysteine. The inhibitors can be added to the reaction before L-cys is added to the solution. Reactions are initiated by transferring the reaction solutions from ice to a 37° C. shaking water bath. After incubation at 37° C. the reaction is terminated by adding 1% ZnAc to trap H2S followed by 10% TCA to precipitate proteins. […]",
  "data": [
    {"smiles": "NOCC(=O)O", "note": "[AOAA, aminooxyacetic acid]", "values": [
      {"measurement": "inhibition at 100 µM", "result": 98, "unit": "%"}
    ]}
  ]
}
